Common to all, as to experiment: relative viability (nuclei count vs DMSO), 5 days (fraction); higher = more cells survive
Compound in the assay “Dactolisib + Dasatinib”: Cn1c(=O)n(-c2ccc(C(C)(C)C#N)cc2)c2c3cc(-c4cnc5ccccc5c4)ccc3ncc21 [Dactolisib] + Cc1nc(Nc2ncc(C(=O)Nc3c(C)cccc3Cl)s2)cc(N2CCN(CCO)CC2)n1 [Dasatinib] (partner 0.075 µM)
Summed up:
(§1)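 Relative viability is defined as nuclei in treated wells over nuclei in vehicle wells. Duplicate plates were run and medians reported. Lung cancer cell lines in 1536-well plates were dosed by pin tool one day after seeding, with one drug or with a fixed anchor-drug dose plus five library-drug doses (not always all listed) in √10 steps, and nuclei were counted after 5 days.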

Compound in the assay “AZ505 + Vorinostat”: C1CCC(CC1)N(CCNCCC2=C3C(=C(C=C2)O)NC(=O)CO3)C(=O)CCNCCC4=CC(=C(C=C4)Cl)Cl [AZ505] + O=C(CCCCCCC(=O)Nc1ccccc1)NO [Vorinostat] (partner 1 µM)
The method, boiled down:
as §1

Compound in the assay “Dactolisib + Decitabine”: Cn1c(=O)n(-c2ccc(C(C)(C)C#N)cc2)c2c3cc(-c4cnc5ccccc5c4)ccc3ncc21 [Dactolisib] + Nc1ncn([C@H]2C[C@H](O)[C@@H](CO)O2)c(=O)n1 [Decitabine] (partner 2 µM)
Summed up:
as §1

Compound in the assay “Dactolisib + Vorinostat”: Cn1c(=O)n(-c2ccc(C(C)(C)C#N)cc2)c2c3cc(-c4cnc5ccccc5c4)ccc3ncc21 [Dactolisib] + O=C(CCCCCCC(=O)Nc1ccccc1)NO [Vorinostat] (partner 1 µM)
The method, boiled down: as §1

In the case of NCI-H2405, the relative viability came out at 0.224 with Dactolisib + Dasatinib (first compound 0.002 µM); 0.238 with Dactolisib + Dasatinib (first compound 0.006325 µM); 0.207 with Dactolisib + Dasatinib (first compound 0.02 µM); 0.213 with Dactolisib + Dasatinib (first compound 0.06325 µM); 0.187 with Dactolisib + Dasatinib (first compound 0.2 µM); 0.811 in the assay with AZ505 + Vorinostat (first compound 0.08 µM). The relative viability in the assay with AZ505 + Vorinostat (first compound 0.8 µM) is 0.823; with AZ505 + Vorinostat (first compound 2.53 µM) it was 0.856; with AZ505 + Vorinostat (first compound 8 µM) it was 0.863; with Dactolisib + Decitabine (first compound 0.002 µM), 0.803; in the assay with Dactolisib + Decitabine (first compound 0.006325 µM) it was 0.76; with Dactolisib + Decitabine (first compound 0.02 µM), 0.687. Further, the relative viability in the assay with Dactolisib + Decitabine (first compound 0.06325 µM) was 0.429; with Dactolisib + Decitabine (first compound 0.2 µM) it was 0.352; with Dactolisib + Vorinostat (first compound 0.002 µM) it was 1.09; in the assay with Dactolisib + Vorinostat (first compound 0.006325 µM), 1.02; with Dactolisib + Vorinostat (first compound 0.02 µM), 0.839; in the assay with Dactolisib + Vorinostat (first compound 0.06325 µM), 0.391. The relative viability in the assay with Dactolisib + Vorinostat (first compound 0.2 µM) worked out at 0.277.
NCI-H322M: the relative viability in the assay with Dactolisib + Dasatinib (first compound 0.002 µM) came out at 0.267; in the assay with Dactolisib + Dasatinib (first compound 0.006325 µM) it was 0.256; in the assay with Dactolisib + Dasatinib (first compound 0.02 µM) it was 0.243; in the assay with Dactolisib + Dasatinib (first compound 0.06325 µM), 0.234; in the assay with Dactolisib + Dasatinib (first compound 0.2 µM) it was 0.235; in the assay with AZ505 + Vorinostat (first compound 0.08 µM), 0.824. The relative viability in the assay with AZ505 + Vorinostat (first compound 0.8 µM) came out at 0.888; in the assay with AZ505 + Vorinostat (first compound 2.53 µM) it was 0.837; with AZ505 + Vorinostat (first compound 8 µM) it was 0.882; with Dactolisib + Decitabine (first compound 0.002 µM) it was 0.759; with Dactolisib + Decitabine (first compound 0.006325 µM) it was 0.712; with Dactolisib + Decitabine (first compound 0.02 µM), 0.631. Also, the relative viability in the assay with Dactolisib + Decitabine (first compound 0.06325 µM) was 0.661; with Dactolisib + Decitabine (first compound 0.2 µM), 0.608; in the assay with Dactolisib + Vorinostat (first compound 0.002 µM), 0.941; with Dactolisib + Vorinostat (first compound 0.006325 µM) it was 0.862; with Dactolisib + Vorinostat (first compound 0.02 µM), 0.734; in the assay with Dactolisib + Vorinostat (first compound 0.06325 µM), 0.599. For the same cell line, the relative viability in the assay with Dactolisib + Vorinostat (first compound 0.2 µM) came out at 0.609.
As to NCI-H2170, the relative viability was determined as 0.644 with Dactolisib + Dasatinib (first compound 0.002 µM); 0.538 with Dactolisib + Dasatinib (first compound 0.006325 µM); 0.652 with Dactolisib + Dasatinib (first compound 0.02 µM); 0.486 with Dactolisib + Dasatinib (first compound 0.06325 µM); 0.289 in the assay with Dactolisib + Dasatinib (first compound 0.2 µM); 0.659 with AZ505 + Vorinostat (first compound 0.08 µM). In addition, the relative viability in the assay with AZ505 + Vorinostat (first compound 0.253 µM) came out at 0.851; with AZ505 + Vorinostat (first compound 0.8 µM), 0.749; with AZ505 + Vorinostat (first compound 2.53 µM), 0.859; with AZ505 + Vorinostat (first compound 8 µM), 0.823; in the assay with Dactolisib + Decitabine (first compound 0.002 µM), 0.489; with Dactolisib + Decitabine (first compound 0.006325 µM), 0.466. The relative viability was 0.476 in the assay with Dactolisib + Decitabine (first compound 0.02 µM); 0.371 with Dactolisib + Decitabine (first compound 0.06325 µM); 0.354 with Dactolisib + Decitabine (first compound 0.2 µM); 0.821 with Dactolisib + Vorinostat (first compound 0.002 µM); 0.815 in the assay with Dactolisib + Vorinostat (first compound 0.006325 µM); 0.754 in the assay with Dactolisib + Vorinostat (first compound 0.02 µM). Also, the relative viability with Dactolisib + Vorinostat (first compound 0.06325 µM) was 0.613; with Dactolisib + Vorinostat (first compound 0.2 µM) it was 0.259.
For the cell line NCI-H522, the relative viability worked out at 0.993 with Dactolisib + Dasatinib (first compound 0.002 µM); 0.791 in the assay with Dactolisib + Dasatinib (first compound 0.006325 µM); 0.822 in the assay with Dactolisib + Dasatinib (first compound 0.02 µM); 0.689 in the assay with Dactolisib + Dasatinib (first compound 0.06325 µM); 0.581 with Dactolisib + Dasatinib (first compound 0.2 µM); 0.688 with AZ505 + Vorinostat (first compound 0.08 µM). Besides, the relative viability with AZ505 + Vorinostat (first compound 0.253 µM) is 0.909; in the assay with AZ505 + Vorinostat (first compound 0.8 µM), 0.927; with AZ505 + Vorinostat (first compound 2.53 µM), 0.874; with AZ505 + Vorinostat (first compound 8 µM), 0.818; with Dactolisib + Decitabine (first compound 0.002 µM) it was 0.797; in the assay with Dactolisib + Decitabine (first compound 0.006325 µM) it was 0.723. Further, the relative viability with Dactolisib + Decitabine (first compound 0.02 µM) was found to be 0.751; in the assay with Dactolisib + Decitabine (first compound 0.06325 µM), 0.62; with Dactolisib + Decitabine (first compound 0.2 µM), 0.533; with Dactolisib + Vorinostat (first compound 0.002 µM), 0.861; with Dactolisib + Vorinostat (first compound 0.006325 µM), 0.833; with Dactolisib + Vorinostat (first compound 0.02 µM), 0.79. For the same cell line, the relative viability with Dactolisib + Vorinostat (first compound 0.06325 µM) stood at 0.822; with Dactolisib + Vorinostat (first compound 0.2 µM), 0.657.
On to NCI-H1395, for which the relative viability was 0.405 in the assay with Dactolisib + Dasatinib (first compound 0.002 µM); 0.405 in the assay with Dactolisib + Dasatinib (first compound 0.006325 µM); 0.392 with Dactolisib + Dasatinib (first compound 0.02 µM); 0.381 with Dactolisib + Dasatinib (first compound 0.06325 µM); 0.355 with Dactolisib + Dasatinib (first compound 0.2 µM); 0.711 with AZ505 + Vorinostat (first compound 0.08 µM). The relative viability with AZ505 + Vorinostat (first compound 0.8 µM) came to 0.68; with AZ505 + Vorinostat (first compound 2.53 µM), 0.744; with AZ505 + Vorinostat (first compound 8 µM) it was 0.812; in the assay with Dactolisib + Decitabine (first compound 0.002 µM), 0.601; with Dactolisib + Decitabine (first compound 0.006325 µM) it was 0.69; in the assay with Dactolisib + Decitabine (first compound 0.02 µM), 0.667. For the same cell line, the relative viability with Dactolisib + Decitabine (first compound 0.06325 µM) came out at 0.505; in the assay with Dactolisib + Decitabine (first compound 0.2 µM), 0.447; in the assay with Dactolisib + Vorinostat (first compound 0.002 µM), 0.423; with Dactolisib + Vorinostat (first compound 0.006325 µM) it was 0.622; in the assay with Dactolisib + Vorinostat (first compound 0.02 µM) it was 0.554; with Dactolisib + Vorinostat (first compound 0.06325 µM), 0.496. For the same cell line, the relative viability with Dactolisib + Vorinostat (first compound 0.2 µM) was 0.467.
NCI-H358: the relative viability with Dactolisib + Dasatinib (first compound 0.002 µM) was found to be 0.162; with Dactolisib + Dasatinib (first compound 0.006325 µM), 0.157; with Dactolisib + Dasatinib (first compound 0.02 µM), 0.191; with Dactolisib + Dasatinib (first compound 0.06325 µM), 0.0796; with Dactolisib + Dasatinib (first compound 0.2 µM) it was 0.0694; with AZ505 + Vorinostat (first compound 0.08 µM), 0.665. Further, the relative viability with AZ505 + Vorinostat (first compound 0.253 µM) turned out to be 1.03; with AZ505 + Vorinostat (first compound 0.8 µM) it was 0.834; in the assay with AZ505 + Vorinostat (first compound 2.53 µM), 0.633; in the assay with AZ505 + Vorinostat (first compound 8 µM) it was 0.69; with Dactolisib + Decitabine (first compound 0.002 µM), 0.303; with Dactolisib + Decitabine (first compound 0.006325 µM), 0.204. Further, the relative viability in the assay with Dactolisib + Decitabine (first compound 0.02 µM) came to 0.202; in the assay with Dactolisib + Decitabine (first compound 0.06325 µM), 0.141; with Dactolisib + Decitabine (first compound 0.2 µM), 0.127; with Dactolisib + Vorinostat (first compound 0.002 µM) it was 0.68; with Dactolisib + Vorinostat (first compound 0.006325 µM), 0.652; with Dactolisib + Vorinostat (first compound 0.02 µM) it was 0.503. Moreover, the figures for the relative viability with Dactolisib + Vorinostat (first compound 0.06325 µM) and in the assay with Dactolisib + Vorinostat (first compound 0.2 µM) were 0.154 and 0.165, respectively.
NCI-H838: the relative viability in the assay with Dactolisib + Dasatinib (first compound 0.002 µM) came to 0.261; with Dactolisib + Dasatinib (first compound 0.006325 µM), 0.259; with Dactolisib + Dasatinib (first compound 0.02 µM), 0.247; with Dactolisib + Dasatinib (first compound 0.06325 µM), 0.248; with Dactolisib + Dasatinib (first compound 0.2 µM) it was 0.224; in the assay with AZ505 + Vorinostat (first compound 0.08 µM) it was 0.674. The relative viability stood at 0.73 in the assay with AZ505 + Vorinostat (first compound 0.253 µM); 0.67 in the assay with AZ505 + Vorinostat (first compound 0.8 µM); 0.737 with AZ505 + Vorinostat (first compound 2.53 µM); 0.787 with AZ505 + Vorinostat (first compound 8 µM); 0.603 with Dactolisib + Decitabine (first compound 0.002 µM); 0.446 in the assay with Dactolisib + Decitabine (first compound 0.006325 µM). Besides, the relative viability worked out at 0.4 with Dactolisib + Decitabine (first compound 0.02 µM); 0.289 with Dactolisib + Decitabine (first compound 0.06325 µM); 0.286 in the assay with Dactolisib + Decitabine (first compound 0.2 µM); 0.746 with Dactolisib + Vorinostat (first compound 0.002 µM); 0.575 with Dactolisib + Vorinostat (first compound 0.006325 µM); 0.497 with Dactolisib + Vorinostat (first compound 0.02 µM). The relative viability was found to be 0.36 with Dactolisib + Vorinostat (first compound 0.06325 µM) and 0.306 in the assay with Dactolisib + Vorinostat (first compound 0.2 µM).

Values taken from the supplement of paper PMC10307832.
